Values quoted from earlier work in patent publication US20050182028A1, “Pharmaceutical formulation for oral delivery of bisphosphates” (priority 2004, published 2005).

Settings: background statement

For `O=P(O)(O)C(O)(Cc1cccnc1)P(=O)(O)O` [risedronate, Risedronate], the oral bioavailability is given as 0.63%.
